Assay [1] deals with human plasma. The assay is described as follows: Prothrombin time (PT) in pooled normal human plasma. The format is biochemical. To be noted: up to 1,100 ng/mL. Here is the method: (§1) The ranges of inhibitor concentrations were chosen to encompass the peak and trough plasma levels measured in patients treated with these agents. [26] The PT was performed using HemosIL HS PLUS (Instrumentation Laboratory, Lexington, Massachusetts, United States) on an ACL 7000 coagulometer (Instrumentation Laboratory) according to the manufacturer's instructions. The aPTT was performed using Actin FSL reagent (Siemens, Marburg, Germany) on a BCS XP analyzer (Siemens) according to the manufacturer's instructions. Assays were performed three times in duplicate at 37 ° C. These PT and aPTT reagents were chosen because of their wide availability and their reported sensitivities to rivaroxaban and apixaban. [27]

For assay [2], the system named is human plasma. The assay is described as follows: Activated partial thromboplastin time (aPTT) in pooled normal human plasma. The format is biochemical. To be noted: up to 1,100 ng/mL. Here is the method:
as §1

In assay [3] the test system is thrombin generation in plasma. The assay is described as follows: Plasma-based calibrated thrombin generation assay. The format is biochemical, human. Conditions: 3 pM tissue factor, concentration-dependent.
Assay [4] has as its target T1, factor Xa (Homo sapiens, UniProt P00742). The assay is described as follows: biochemical. Conditions: read-out: inhibition of factor Xa chromogenic activity.
In assay [5] the target is factor Xa incorporated into the prothrombinase complex (Homo sapiens, UniProt P00742). The assay is described as follows: Factor Xa chromogenic activity in the presence of factor Va, PCPS and prothrombin (hirudin added). Conditions: dose-dependent, data not shown.
Sequence of factor Xa incorporated into the prothrombinase complex (P00742 41-179 limits assumed): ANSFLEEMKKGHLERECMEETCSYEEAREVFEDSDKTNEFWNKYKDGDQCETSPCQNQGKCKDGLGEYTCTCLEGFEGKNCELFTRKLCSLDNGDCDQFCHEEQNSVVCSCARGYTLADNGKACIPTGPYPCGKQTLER
Sequence of factor Xa incorporated into the prothrombinase complex (P00742 235-488 limits assumed): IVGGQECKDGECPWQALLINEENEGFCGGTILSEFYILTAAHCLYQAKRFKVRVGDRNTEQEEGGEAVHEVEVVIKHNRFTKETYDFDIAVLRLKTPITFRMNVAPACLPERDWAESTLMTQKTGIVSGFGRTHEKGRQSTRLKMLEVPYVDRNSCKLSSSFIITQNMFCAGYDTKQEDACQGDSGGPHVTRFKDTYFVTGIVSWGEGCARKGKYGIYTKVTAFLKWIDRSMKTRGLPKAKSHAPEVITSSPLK
Sequence of factor Xa incorporated into the prothrombinase complex (P12259 29-737 partner limits assumed): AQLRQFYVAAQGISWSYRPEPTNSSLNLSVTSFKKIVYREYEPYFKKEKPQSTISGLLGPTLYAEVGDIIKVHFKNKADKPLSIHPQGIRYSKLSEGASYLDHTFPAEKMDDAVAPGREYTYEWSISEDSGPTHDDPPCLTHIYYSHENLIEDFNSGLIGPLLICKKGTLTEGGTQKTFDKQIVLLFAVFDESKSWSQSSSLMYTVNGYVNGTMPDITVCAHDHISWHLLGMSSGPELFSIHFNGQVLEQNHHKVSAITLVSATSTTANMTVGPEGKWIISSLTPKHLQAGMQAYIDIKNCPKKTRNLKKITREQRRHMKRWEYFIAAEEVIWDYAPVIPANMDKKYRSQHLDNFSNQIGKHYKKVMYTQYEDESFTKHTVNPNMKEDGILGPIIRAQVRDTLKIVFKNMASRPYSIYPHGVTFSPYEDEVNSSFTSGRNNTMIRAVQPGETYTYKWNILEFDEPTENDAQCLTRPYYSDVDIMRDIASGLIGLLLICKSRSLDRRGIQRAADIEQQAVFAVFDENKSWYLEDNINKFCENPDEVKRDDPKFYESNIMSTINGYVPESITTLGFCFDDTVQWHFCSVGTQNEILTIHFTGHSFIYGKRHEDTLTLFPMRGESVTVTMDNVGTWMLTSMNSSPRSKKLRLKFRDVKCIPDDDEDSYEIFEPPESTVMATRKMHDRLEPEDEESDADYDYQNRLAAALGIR
Sequence of factor Xa incorporated into the prothrombinase complex (P12259 1574-2224 partner limits assumed): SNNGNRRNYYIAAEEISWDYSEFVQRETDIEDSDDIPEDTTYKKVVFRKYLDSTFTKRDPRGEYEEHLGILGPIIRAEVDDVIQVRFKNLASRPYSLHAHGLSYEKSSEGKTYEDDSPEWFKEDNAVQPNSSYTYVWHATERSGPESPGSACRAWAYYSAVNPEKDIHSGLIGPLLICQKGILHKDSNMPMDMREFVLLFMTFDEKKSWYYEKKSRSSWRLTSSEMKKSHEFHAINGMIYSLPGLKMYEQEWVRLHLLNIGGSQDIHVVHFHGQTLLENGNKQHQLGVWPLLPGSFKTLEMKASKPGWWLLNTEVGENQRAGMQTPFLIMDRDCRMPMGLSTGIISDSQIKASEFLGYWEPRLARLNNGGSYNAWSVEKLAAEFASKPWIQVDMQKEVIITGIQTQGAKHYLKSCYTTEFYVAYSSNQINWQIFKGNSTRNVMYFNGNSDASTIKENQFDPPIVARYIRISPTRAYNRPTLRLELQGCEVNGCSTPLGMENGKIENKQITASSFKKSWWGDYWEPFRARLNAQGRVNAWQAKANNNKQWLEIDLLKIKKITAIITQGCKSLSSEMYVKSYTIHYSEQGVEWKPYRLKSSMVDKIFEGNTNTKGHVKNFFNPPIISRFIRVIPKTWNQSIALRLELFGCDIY
Assay [6] deals with T2, factor Xa incorporated in prothrombinase (Homo sapiens, UniProt P00742). The assay is described as follows: Rate constants of inhibition of prothrombinase with rMZ as substrate (meizothrombin-DAPA fluorescence). Conditions: 37°C.
T2 sequence (P00742 41-179 limits assumed): as the sequence (P00742 41-179 limits assumed) above
T2 sequence (P00742 235-488 limits assumed): as the sequence (P00742 235-488 limits assumed) above
T2 sequence (P12259 29-737 partner limits assumed): as the sequence (P12259 29-737 partner limits assumed) above
T2 sequence (P12259 1574-2224 partner limits assumed): as the sequence (P12259 1574-2224 partner limits assumed) above
Assay [7] deals with T2, factor Xa incorporated in prothrombinase. The assay is described as follows: Rate constants of inhibition of factor Xa in prothrombinase (prothrombin activation, thrombin-DAPA fluorescence, Scheme 2).
In assay [8] the target is T1, factor Xa. The assay is described as follows: Rate constants of inhibition of factor Xa (Pefafluor Xa, mixed inhibition model, Scheme 1). Details: factor Xa and thrombin were purchased from Enzyme Research Laboratories; purchased Enzyme Research Laboratories (South Bend, IN). Type of assay: biochemical.
The mark [9] stands for this setting: 37°C, prothrombinase in complex with either form of meizothrombin.
Where [10] appears, read: 37°C, prothrombinase in complex with prothrombin.
Where [11] appears, read: prothrombin substrate, 37°C, prothrombinase without prothrombin.
The mark [12] stands for this setting: 37°C, […] inhibitor, 100 µM Pefafluor Xa, […] factor Xa.

Experimental findings from PMC6524873 (TH Open: Companion Journal to Thrombosis and Haemostasis, 2018) are described below.

Structures are written as SMILES.

T1 sequence (P00742 41-179 limits assumed): as the sequence (P00742 41-179 limits assumed) above
T1 sequence (P00742 235-488 limits assumed): as the sequence (P00742 235-488 limits assumed) above

Consider `COc1ccc(-n2nc(C(N)=O)c3c2C(=O)N(c2ccc(N4CCCCC4=O)cc2)CC3)cc1` [Apixaban, 1-(4-methoxyphenyl)-7-oxo-6-(4-(2-oxopiperidin-1-yl)phenyl)-4,5,6,7-tetrahydro-1H-pyrazolo[3,4-c]pyridine-3-carboxamide], for which the “effect on the PT” value in the assay with human plasma [1] is “prolonged the PT and aPTT in a concentration-dependent manner”. In the assay on human plasma [2], the “effect on the aPTT” value is “prolonged the PT and aPTT in a concentration-dependent manner”. In assay [3], the “effect on endogenous thrombin potential (ETP)” value is “decreased endogenous thrombin potential (ETP)” and the “effect on lag time” value is “prolonged the lag time”.
In general, inhibition refers to the change of the read-out against control, counted positive when it falls. `O=C(NC[C@H]1CN(c2ccc(N3CCOCC3=O)cc2)C(=O)O1)c1ccc(Cl)s1` [Rivaroxaban, 5-chloro-N-((5S)-2-oxo-3-[4-(3-oxomorpholin-4-yl)phenyl]-1,3-oxazolidin-5-ylmethyl)thiophene-2-carboxamide]: in the assay on human plasma [1], the “effect on the PT” value is “prolonged the PT and aPTT in a concentration-dependent manner”. Also, the “effect on the aPTT” value with human plasma [2] is “prolonged the PT and aPTT in a concentration-dependent manner”. For the same compound, in assay [3], the “effect on endogenous thrombin potential (ETP)” value is “decreased endogenous thrombin potential (ETP)”, the “effect on lag time” value was “prolonged the lag time” and the “effect on peak thrombin concentration” value is on record as “reduced peak thrombin concentration”. On factor Xa [4], the inhibition at 0.02 µM is roughly 85%. In assay [5], the “inhibition of factor Xa chromogenic activity in the presence of prothrombinase components” value was “over 95%”. Also, in assay [6] (free prothrombinase), the “ji 1, off-rate, E + I ⇔ E · I” value is given as “(2.15 ± 0.18) × 10 ^−3 s ^−1” and the “ki 1, on-rate, E + I ⇔ E · I” value is recorded as “(3.46 ± 0.49) × 10 ^−2 nM ^−1 ·s ^−1”. In addition, in assay [6] (prothrombinase-rMZ complex), the “ji 2, off-rate, E · rMZ + I ⇔ E · rMZ · I” value is “(1.23 ± 0.08) × 10 ^−4 s ^−1” and the “ki 2, on-rate, E · rMZ + I ⇔ E · rMZ · I” value is on record as “(6.41 ± 0.44) × 10 ^−3 nM ^−1 ·s ^−1”. For the same compound, in assay [7] (setting [9]), the “ji 3, off-rate, E · M + I ⇔ E · M · I or E · M2 + I ⇔ E · M2 · I” value was “(2.95 ± 0.11) × 10 ^−3 s ^−1” and the “ki 3, on-rate, E · M + I ⇔ E · M · I or E · M2 + I ⇔ E · M2 · I” value is on record as “(2.37 ± 0.22) × 10 ^−3 nM ^−1 ·s ^−1”. In assay [7] (setting [10]), the “ji 2, off-rate, E · P + I ⇔ E · P · I” value is “(1.12 ± 0.15) × 10 ^−2 s ^−1” and the “ki 2, on-rate, E · P + I ⇔ E · P · I” value was “(1.24 ± 0.02) × 10 ^−2 nM ^−1 ·s ^−1”. Moreover, the “K Pase1, lower than apixaban” value in assay [7] (free enzyme inhibition, prothrombin substrate) was 454 fold. Moreover, the “dissociation rates, faster than apixaban” value in assay [7] (free factor Xa or factor Xa incorporated into the prothrombinase complex) is “about 3 fold”. Further, in assay [7] (setting [11]), the “ji 1, off-rate, E + I ⇔ E · I” value is recorded as “(1.31 ± 0.11) × 10 ^−3 s ^−1” and the “ki 1, on-rate, E + I ⇔ E · I” value was “(5.38 ± 0.35) × 10 ^−3 nM ^−1 ·s ^−1”. Besides, the “ki 3 on-rate with prothrombinase-meizothrombin complex, slower than apixaban” value in assay [7] (rivaroxaban slower than apixaban) came to 3 fold. In addition, at factor Xa [8] (setting [12]), the “j 3, off-rate, free factor Xa” value was “(3.21 ± 0.28) × 10 ^−2 s ^−1”; the “j 4, off-rate, factor Xa-substrate complex” value is “(2.01 ± 0.17) × 10 ^−2 s ^−1”; the “k 3, on-rate, free factor Xa” value was “(3.77 ± 0.32) × 10 ^−2 nM ^−1 ·s ^−1”; the “k 4, on-rate, factor Xa-substrate complex” value is “(1.34 ± 0.04) × 10 ^−2 nM ^−1 ·s ^−1”. In addition, the “on- and off-rate constants for binding factor Xa alone (k 3 and j 3), on average faster than apixaban” value on factor Xa [8] (average of k3 and j3 ratios) is 21 fold. In addition, the “binding to the factor Xa-fluorogenic substrate complex (k 4 and j 4), on average faster than apixaban” value at factor Xa [8] (average of k4 and j4 ratios) is 25 fold. Also, the “rate of factor Xa inhibition, faster than apixaban” value at factor Xa [8] (kinetic measurements, p < 0.001) is “up to 4 fold”.
